From patent US6380198B1 (Laboratoire Medidom S.A., priority 1997, dated 2002)
Several values for one entry are separate records, joined by “and”; a condition that tells them apart may be missing. Equal values may be shown once.

Key:
[1] = tested on: intraocular pressure of rabbits showing normal baseline intraocular pressure; experiment: Intraocular pressure in rabbits with normal intraocular pressure after topical instillation; assay type: in vivo, rabbit (Vienna Blue, pigmented); conditions: 50 μl eye-drops; 0.050% flunarizine, equimolar comparators, 0.5% timolol
Procedure: The effects of the agent of the invention on the intraocular pressure of rabbits showing normal baseline intraocular pressure were evaluated in comparison with the action of a placebo, and with that of various other calcium channel blocking agents. Female pigmented rabbits of the Vienna Blue strain were used (supplied by Charles River Italiana, of Calco (CO)). The age of the animals at the time of starting the experimentation was 9 weeks, and their weight was 2.0-2.5 kg.
The choice of a species with pigmented iris is due to the fact that the latter represents a reliable model for the evaluation of possible modifications of the intraocular pressure caused by the products under test. The strain chosen is genetically defined, so as to limit to a minimum the variability of the biological characteristics between one animal and the other.
The animals were kept in rooms maintained under constant and controlled conditions of temperature and humidity, illuminated for 12 hours a day with artificial light and with continuous renovation of the air. The feed consisted of a standard diet having a constant and known composition, and both feed and water were available ad libitum during the whole period of the test. The rabbits were stabled for 21 days before starting the test, so as to allow a sufficient acclimatation and to suitably evaluate the health conditions of the rabbits. Each experimental group consisted of 4 animals, which were allotted to the treatment groups in a randomised way.
Each different group of animals received, by instillation in the right conjunctival fornix, 50 μl of the following products:
The weight concentrations of the various agents under test are chosen so as to correspond to the same molar concentration.
The pressure in the treated eye was measured by flattening tonometer (TonopenXL®, Mentor), 15 minutes before the instillation of the eyerops (time 0) and then 30, 60, 90, 120, 180 and 240 minutes after. As a local anaesthetic, 5 minutes before carrying out each measurement 25 μl of a commercial ophthalmic solution containing 0.4% oxybuprocaine hydrochloride (Novesine®, Sandoz) was instilled. To carry out the measurement the rabbits were placed in a suitably designed cage, that prevents any sudden movement of the animal under test.
For each animal and at each of the times listed above the average of three subsequent measurements was calculated and recorded, each one said measurements being made after 1 minute from the previous one. The intraocular pressure values at the various times were compared with the values obtained before the treatment, by means of the Student's “t” test. The comparisons between different groups were made by processing the data by the variance analysis (ANOVA) and, where possible, by the Student's “t” test for the comparison of two different experimental groups. Values of p<0.05 were considered to be statistically significant.

[2] = tested on: intraocular pressure of rabbits with ocular hypertension; experiment: Intraocular pressure in rabbits with ocular hypertension induced by α-chymotrypsin; assay type: in vivo, rabbit (Vienna Blue, pigmented); conditions: for Intraocular pressure (mmHg) at the time (min): 30, average ± S.D. / Intraocular pressure (mmHg) at the time (min): 60, average ± S.D. / Intraocular pressure (mmHg) at the time (min): 90, average ± S.D. / Intraocular pressure (mmHg) at the time (min): 120, average ± S.D. / Intraocular pressure (mmHg) at the time (min): 180, average ± S.D. / Intraocular pressure (mmHg) at the time (min): 240, average ± S.D. / Intraocular pressure (mmHg) at the time (min): 0, average ± S.D. / Intraocular pressure (mmHg) at the time (min): 30 / Intraocular pressure (mmHg) at the time (min): 60 / Intraocular pressure (mmHg) at the time (min): 90 / Intraocular pressure (mmHg) at the time (min): 120 / Intraocular pressure (mmHg) at the time (min): 180 / Intraocular pressure (mmHg) at the time (min): 240 / Intraocular pressure (mmHg) at the time (min): 0: Table 4, 50 μl; for Intraocular pressure (mmHg) at the time (min): 30, average ± S.D. / Intraocular pressure (mmHg) at the time (min): 60, average ± S.D. / Intraocular pressure (mmHg) at the time (min): 90, average ± S.D. / Intraocular pressure (mmHg) at the time (min): 120, average ± S.D. / Intraocular pressure (mmHg) at the time (min): 180, average ± S.D. / Intraocular pressure (mmHg) at the time (min): 240, average ± S.D. / Intraocular pressure (mmHg) at the time (min): 0, average ± S.D.: average ± S.D. of 4 rabbits; for Intraocular pressure (mmHg) at the time (min): 30, average ± S.D. / Intraocular pressure (mmHg) at the time (min): 30: 30 min after instillation; for Intraocular pressure (mmHg) at the time (min): 60, average ± S.D. / Intraocular pressure (mmHg) at the time (min): 60: 60 min after instillation; for Intraocular pressure (mmHg) at the time (min): 90, average ± S.D. / Intraocular pressure (mmHg) at the time (min): 90: 90 min after instillation; for Intraocular pressure (mmHg) at the time (min): 120, average ± S.D. / Intraocular pressure (mmHg) at the time (min): 120: 120 min after instillation; for Intraocular pressure (mmHg) at the time (min): 180, average ± S.D. / Intraocular pressure (mmHg) at the time (min): 180: 180 min after instillation; for Intraocular pressure (mmHg) at the time (min): 240, average ± S.D. / Intraocular pressure (mmHg) at the time (min): 240: 240 min after instillation; for Intraocular pressure (mmHg) at the time (min): 0, average ± S.D. / Intraocular pressure (mmHg) at the time (min): 0: time 0 = 15 min before instillation (baseline); for Intraocular pressure (mmHg) at the time (min): 30 / Intraocular pressure (mmHg) at the time (min): 60 / Intraocular pressure (mmHg) at the time (min): 90 / Intraocular pressure (mmHg) at the time (min): 120 / Intraocular pressure (mmHg) at the time (min): 180 / Intraocular pressure (mmHg) at the time (min): 240 / Intraocular pressure (mmHg) at the time (min): 0: individual rabbit, right eye
Procedure: Rabbits of the same type as those described in the previous section were used for the following tests.
In the rabbit, the injection of this enzyme in the posterior chamber causes, after one month from the administration, an effect of ocular hypertension.
At the end of the quarantine period the rabbits were anaesthetised by intramuscular administration of ketamine hydrochloride and xylazine hydrochloride (RBI). The right eye was gently pushed outwardly after instilling 25 μl of Novesine® eye-drops, containing oxybuprocaine as an anaesthetic; then, a sterile solution of σ-chymotrypsin (SIGMA, Milan; 150 units in 100 μl of physiologic sterile solution) was injected in the posterior chamber of the right eye by means of a 30G sterile needle. After the administration of the enzyme, the eye was thoroughly washed with physiologic sterile solution in order to remove any traces of α-chymotrypsin which could damage the ocular tissues. Then, 2 drops of a commercial ophthalmic antibiotic solution (Colbiocin®, SIFI S.p.A., containing chloramphenicol, rolitetracycline, colistin methanesulphonate) were instilled. The treatment was carried out 3 times a day (at 8.00 a.m., 12.00 a.m. and 6.00 p.m.) for one week after the administration of α-chymotrypsin. The rabbits were employed in the tests after one month from the induction of ocular hypertension by means of the enzyme.
The rabbits, divided also in this case in groups of 4 animals, were treated by instillation of 50 μl of the product under test in the right conjunctival fornix.
The intraocular pressure in the treated eye was measured, according to the same procedure as in the previous tests, 15 minutes before the instillation of the eye-drops and 30, 60, 90, 120, 180 and 240 minutes after. The values obtained were statistically analysed according to the criteria mentioned in the foregoing.
The experimental conditions were exactly the same as before.

[3] = eye-drops with 0.010% flunarizine
[4] = eye-drops with 0.050% flunarizine
[5] = eye-drops with 0.100% flunarizine

## Fc1ccc(C(c2ccc(F)cc2)N2CCN(C/C=C/c3ccccc3)CC2)cc1 [flunarizine]
[1]
  Effect on intraocular pressure in rabbits with normal pressure, in words: better performance in lowering the intraocular pressure than timolol alone
[2]; 50 μl eye-drops, 0.050% flunarizine, equimolar comparators, 0.5% timolol
  Effect on intraocular pressure in rabbits with ocular hypertension, in words: effectiveness comparable to or better than that of timolol alone
[2]; [3]
  Intraocular pressure (mmHg) at the time (min): 30, average ± S.D.: 55.0 ± 5.35 mmHg
  Intraocular pressure (mmHg) at the time (min): 60, average ± S.D.: 52.7 ± 5.18 mmHg
  Intraocular pressure (mmHg) at the time (min): 90, average ± S.D.: 52.5 ± 5.44 mmHg
  Intraocular pressure (mmHg) at the time (min): 120, average ± S.D.: 55.7 ± 5.18 mmHg
  Intraocular pressure (mmHg) at the time (min): 180, average ± S.D.: 56.5 ± 6.60 mmHg
  Intraocular pressure (mmHg) at the time (min): 240, average ± S.D.: 57.5 ± 6.55 mmHg
  Intraocular pressure (mmHg) at the time (min): 0, average ± S.D.: 57.5 ± 6.13 mmHg
  Intraocular pressure (mmHg) at the time (min): 30: 50 mmHg and 58 mmHg and 61 mmHg and 51 mmHg
  Intraocular pressure (mmHg) at the time (min): 60: 48 mmHg and 55 mmHg and 59 mmHg and 49 mmHg
  Intraocular pressure (mmHg) at the time (min): 90: 49 mmHg and 53 mmHg and 60 mmHg and 48 mmHg
  Intraocular pressure (mmHg) at the time (min): 120: 51 mmHg and 58 mmHg and 62 mmHg and 52 mmHg
  Intraocular pressure (mmHg) at the time (min): 180: 50 mmHg and 60 mmHg and 64 mmHg and 52 mmHg
  Intraocular pressure (mmHg) at the time (min): 240: 52 mmHg (2×) and 61 mmHg and 65 mmHg
  Intraocular pressure (mmHg) at the time (min): 0: 52 mmHg and 60 mmHg and 65 mmHg and 53 mmHg
[2]; [4]
  Intraocular pressure (mmHg) at the time (min): 30, average ± S.D.: 39.5 ± 7.32 mmHg
  Intraocular pressure (mmHg) at the time (min): 60, average ± S.D.: 37.7 ± 7.27 mmHg
  Intraocular pressure (mmHg) at the time (min): 90, average ± S.D.: 40.7 ± 7.63 mmHg
  Intraocular pressure (mmHg) at the time (min): 120, average ± S.D.: 42.2 ± 7.36 mmHg
  Intraocular pressure (mmHg) at the time (min): 180, average ± S.D.: 47.0 ± 8.28 mmHg
  Intraocular pressure (mmHg) at the time (min): 240, average ± S.D.: 47.2 ± 8.18 mmHg
  Intraocular pressure (mmHg) at the time (min): 0, average ± S.D.: 47.7 ± 9.03 mmHg
  Intraocular pressure (mmHg) at the time (min): 30: 47 mmHg and 38 mmHg and 30 mmHg and 43 mmHg
  Intraocular pressure (mmHg) at the time (min): 60: 45 mmHg and 37 mmHg and 28 mmHg and 41 mmHg
  Intraocular pressure (mmHg) at the time (min): 90: 50 mmHg and 38 mmHg and 32 mmHg and 43 mmHg
  Intraocular pressure (mmHg) at the time (min): 120: 51 mmHg and 39 mmHg and 34 mmHg and 45 mmHg
  Intraocular pressure (mmHg) at the time (min): 180: 56 mmHg and 44 mmHg and 37 mmHg and 51 mmHg
  Intraocular pressure (mmHg) at the time (min): 240: 56 mmHg and 45 mmHg and 37 mmHg and 51 mmHg
  Intraocular pressure (mmHg) at the time (min): 0: 57 mmHg and 46 mmHg and 36 mmHg and 52 mmHg
[2]; [5]
  Intraocular pressure (mmHg) at the time (min): 30, average ± S.D.: 42.2 ± 5.31 mmHg
  Intraocular pressure (mmHg) at the time (min): 60, average ± S.D.: 39.2 ± 4.57 mmHg
  Intraocular pressure (mmHg) at the time (min): 90, average ± S.D.: 43.0 ± 5.71 mmHg
  Intraocular pressure (mmHg) at the time (min): 120, average ± S.D.: 45.0 ± 5.71 mmHg
  Intraocular pressure (mmHg) at the time (min): 180, average ± S.D.: 48.5 ± 6.24 mmHg
  Intraocular pressure (mmHg) at the time (min): 240, average ± S.D.: 49.7 ± 5.73 mmHg
  Intraocular pressure (mmHg) at the time (min): 0, average ± S.D.: 49.7 ± 6.6 mmHg
  Intraocular pressure (mmHg) at the time (min): 30: 48 mmHg and 40 mmHg and 36 mmHg and 45 mmHg
  Intraocular pressure (mmHg) at the time (min): 60: 45 mmHg and 38 mmHg and 34 mmHg and 40 mmHg
  Intraocular pressure (mmHg) at the time (min): 90: 49 mmHg and 41 mmHg and 36 mmHg and 46 mmHg
  Intraocular pressure (mmHg) at the time (min): 120: 51 mmHg and 43 mmHg and 38 mmHg and 48 mmHg
  Intraocular pressure (mmHg) at the time (min): 180: 56 mmHg and 47 mmHg and 41 mmHg and 50 mmHg
  Intraocular pressure (mmHg) at the time (min): 240: 57 mmHg and 49 mmHg and 43 mmHg and 50 mmHg
  Intraocular pressure (mmHg) at the time (min): 0: 58 mmHg and 48 mmHg and 42 mmHg and 51 mmHg
